Measurements taken from patent publication US11953435B2, “Zinc-responsive fluorophores” (Northwestern University, priority 2019, dated 2024).
Several values for one entry are separate records, joined by “and”; a condition that tells them apart may be missing. Equal entries are not always repeated. Entries after “also recorded” stand apart in the source; their conditions may differ.

How the values were obtained:
[1] = pH response of fluorescence; assay type: physicochemical; details: for fluorescence changes of the Apo probe with pH: Apo (TPEN); for fluorescence changes of the Apo probe with pH / pH range in which fluorescence of the Zn-bound probe is stable: buffers at various pHs; for pH-dependent fluorescence changes: holo and apo forms, physiological pH range (pH 4-8)
Method: (§1) Aqueous solutions were prepared by using de-ionized water with resistivity […], obtained using a Milli-Q water purification system. In order to properly compare the photophysical properties of ZincBY-2, ZincBY-3, and ZincBY-4 to ZincBY-1, the photophysical properties of ZincBY-1 we remeasured. […] Stock solutions of ZincBY-1, ZincBY-2, ZincBY-3, and ZincBY-4 were prepared at concentrations of 5 mM and stored at −20° C. in aliquots that were used immediately after thawing for each experiment. Unless otherwise stated, all spectroscopic methods were conducted in aqueous buffer containing 50 mM HEPES (pH 7.2) and 0.1 M KNO3. UV-visible spectra were acquired on a PerkinElmer Lambda 650 UV/Vis spectrophotometer using quartz cuvettes from Starna (1 cm path length, 10 cm path length used in extinction coefficient and quantum yield determination). Fluorescence spectra were acquired using a PerkinElmer LS 55 fluorescence spectrophotometer. For measurements containing zinc, 99.0% ZnNO3 hexahydrate (final concentration 5 μM) was used. For experiments analyzing apo probes, N,N,N′,N′-Tetrakis(2-pyridylmethyl)ethylenediamine (TPEN) (final concentration 5 μM) was added to solution. Quantum Yield and Extinction Coefficient Determination. Quantum yields for apo and holo ZincBY-1, ZincBY-2, ZincBY-3, and ZincBY-4 were determined by plotting absorbance vs. fluorescence intensity of solutions containing ZincBY-1, ZincBY-2, ZincBY-3, or ZincBY-4 at probe concentrations ranging from 50-250 nM. Serial dilution was used to make solutions at different concentrations. Fluorescein dissolved in 0.1 N NaOH was used as the quantum yield standard, using a literature-determined quantum yield of 0.95.^3 For all fluorophore solutions, fluorescence excitation was set at 490 nm and fluorescence emission was integrated from 510 nm to 650 nm. Zinc Dissociation Constant. Fluorescence spectra were recorded using zinc probes (ZincBY-1, ZincBY-2, ZincBY-3, or ZincBY-4; 200 nM) and ZnSO4 (various concentrations). The solutions were equilibrated in the dark for 1 h prior to measurement. The concentration of ZnSO4 was varied from 1 μM to 9 mM in buffer solution (50 mM HEPES and 0.1 M KNO3, and pH 7.2) containing 10 mM EGTA. Free Zn^2+ was calculated according to a previously reported method (Ref. B4; incorporated by reference in its entirety). Data was fit to the following one-site binding equation: F=(FminKd+Fmax[Zn^2+])/(Kd+[Zn^2+]) pH Response. The fluorescence spectra of zinc probes (ZincBY-2, ZincBY-3, or ZincBY-4; 200 nM) wasere measured at various pH values (4.5-11). The following buffers were used at 50 mM concentration with 0.1 M KNO3: NaOAc/AcOH (pH 4.0-4.5), MES (pH 5.0-6.5), HEPES (pH 7.0-8.0), CHES (pH 8.5-9.5), CAPS (pH 10.0-11.0). Metal Ion Response. The fluorescence spectra of zinc probes (ZincBY-2, ZincBY-3, or ZincBY-4; 200 nM) were measured in the presence an excess of metal ion including 1 mM KNO3, 1 mM NaNO3, 1 mM CaSO4, 1 mM MgSO4, 15 μM MnSO4, 15 μM (NH4)2Fe(SO4)2, 15 μM NH4Fe(SO4)2, 15 μM CoSO4, 15 μM NiSO4, 15 μM CuSO4, 15 μM [Cu(CH3CN)4]PF6, 15 μM CdSO4, 15 μM Hg(NO3)2, 15 μM Pb(NO3)2, or 15 μM ZnSO4. The fluorescence spectra were compared to that of ZincBY-2 (200 nM), ZincBY-3 (200 nM), or ZincBY-4 (200 nM) in the presence of 10 μM TPEN. Determination of octanol-water partition coefficients (log P). A log P value for each probe was determined by agitating nanomolar solutions of each probe in a 1:1 mixture of HEPES buffer and 1-octanol. Solutions were allowed to settle for 1 h and then the fluorescence intensity of each phase was measured. Standard curves of the fluorescence of known concentrations of probes in both solutions were used to determine concentrations.

[2] = Zinc dissociation constant, fluorescence titration in buffered EGTA-zinc solution; assay type: binding; details: for Kd: 200 nM probe, 50 mM HEPES, 0.1 M KNO3, pH 7.2, 10 mM EGTA; for affinity for zinc (in words): compared to other probes
Method: as §1

[3] = Metal ion response / selectivity of fluorescence; details: for metal ions that inhibit the zinc response: other metal ions in the presence of excess zinc; for fluorescence response to toxic metals (Cd, Hg, Pb): relative fluorescence intensity; for metal ions to which the probe does not respond: relative fluorescence intensity in the presence of other metal ions
Method: as §1

[4] = Photophysical properties in aqueous buffer (UV-visible, fluorescence, quantum yield, extinction coefficient); assay type: physicochemical; details: for λAbs (max) / λEm (max): aqueous buffer pH 7.2; for Extinction Coefficient (ε) / Quantum Yield (Φ): 50 nM to 250 nM probe; for fluorescence turn-on in the presence of zinc: aqueous buffered solutions; for turn-on ratio / increase in brightness in response to zinc: holo vs apo
Method: as §1

[5] = remeasured, same as originally reported, state not specified

SMILES	fluorescence changes of the Apo probe with pH [1]	pH range in which fluorescence of the Zn-bound probe is stable [1]	Kd [2] [nM]	affinity for zinc (in words) [2]	metal ions that inhibit the zinc response [3]	fluorescence response to toxic metals (Cd, Hg, Pb) [3]	metal ions to which the probe does not respond [3]	Brightness (ε*Φ/1000) ([4]; Apo)	λAbs (max) ([4]; Apo (TPEN)) [nm]	Extinction Coefficient (ε) ([4]; Apo)	Quantum Yield (Φ) ([4]; Apo)	λEm (max) ([4]; Apo) [nm]	Brightness (ε*Φ/1000) ([4]; Zn-bound)	Extinction Coefficient (ε) ([4]; Zn-bound)	Quantum Yield (Φ) ([4]; Zn-bound)	λAbs (max) ([4]; Zn-bound) [nm]	λEm (max) ([4]; Zn-bound) [nm]	pH-dependent fluorescence changes [1]	preference for Zn(II) over other biologically relevant metal ions [3]	fluorescence turn-on in the presence of zinc [4]	other results
Cc1cc(C)c(C2=C3C=CC(OCCN)=[N+]3[B-](F)(F)n3c2ccc3N(CCN(Cc2ccccn2)Cc2ccccn2)Cc2ccccn2)c(C)c1 [ZincBY-3, N1-(7-(2-aminoethoxy)-5,5-difluoro-10-mesityl-5H-4λ4,5λ4-dipyrrolo[1,2-c:2′,1′-f][1,3,2]diazaborinin-3-yl)-N1,N2,N2-tris(pyridin-2-ylmethyl)ethane-1,2-diamine]	largely unaffected by changes in pH	4-8 pH	0.0977 ± 0.0261	sub-nanomolar	does not fluoresce in the presence of Cu(I) or Cu(II), and these ions inhibit the zinc response; also recorded: Fe(II) and Fe(III) also seem to inhibit a zinc response	exhibits a fluorescence response to the toxic metals Cd, Hg, and Pb	does not respond to changes in K, Na, Ca, Mg, Mn, Co, or Ni concentration	1.85(8) M^−1cm^−1	571	1.16(4) × 10^4 M^−1cm^−1	0.158(3)	585	12.42(36) M^−1cm^−1	2.21(5) × 10^4 M^−1cm^−1	0.562(11)	482	537	–	–	–	affinity for zinc higher than that of ZincBY-1 ([2]; relative to ZincBY-1): 38 fold
CC(=O)NCCOc1ccc2n1[B-](F)(F)[N+]1=C(N(CCN(Cc3ccccn3)Cc3ccccn3)Cc3ccccn3)C=CC1=C2c1c(C)cc(C)cc1C [ZincBY-4, N-(2-((7-((2-(bis(pyridin-2-ylmethyl)amino)ethyl)(pyridin-2-ylmethyl)amino)-5,5-difluoro-10-mesityl-5H-5λ4,6λ4-dipyrrolo[1,2-c:2′,1′-f][1,3,2]diazaborinin-3-yl)oxy)ethyl)acetamide]	largely unaffected by changes in pH	4-8 pH	0.229 ± 0.0184	sub-nanomolar	does not fluoresce in the presence of Cu(II) or Hg, and these ions inhibit the zinc response; also recorded: Fe(II), Fe(III), and Co also seem to inhibit the zinc response	exhibits a fluorescence response to the toxic metals Cd, and Pb	does not respond to changes in K, Na, Ca, Mg, Mn, Ni, or Cu(I) concentration	1.44(7) M^−1cm^−1	572	0.88(4) × 10^4 M^−1cm^−1	–	585	12.15(34) M^−1cm^−1	2.12(4) × 10^4 M^−1cm^−1	–	482	537	neither the holo or apo forms of ZincBY-1 and ZincBY-4 show significant changes in fluorescence	responds preferentially to Zn(II) relative to other biologically relevant metal ions	8.4	absorption peaks ([4]; apo form): 482 nm and 570 nm; quantum yield lower compared to ZincBY-1 ([4]; apo form): 5%; quantum yield lower compared to ZincBY-1 ([4]; holo form): 10%; turn-on ratio / increase in brightness in response to zinc [4]: 8 fold
Cc1cc(C)c(C2=C3C=CC(OCCN=[N+]=[N-])=[N+]3[B-](F)(F)n3c2ccc3N(CCN(Cc2ccccn2)Cc2ccccn2)Cc2ccccn2)c(C)c1 [ZincBY-2, N1-(7-(2-azidoethoxy)-5,5-difluoro-10-mesityl-5H-4λ4,5λ4-dipyrrolo[1,2-c:2′,1′-f][1,3,2]diazaborinin-3-yl)-N1,N2,N2-tris(pyridin-2-ylmethyl)ethane-1,2-diamine]	largely unaffected by changes in pH	4.5-8.0 pH	18.1 ± 2.6	–	does not fluoresce in the presence of Cu(I) and Cu(II), and these ions inhibit the zinc response	exhibits an increase in fluorescence in response to toxic metals Cd and Hg, but does not respond to Pb	does not respond to changes in K, Na, Ca, Mg, Mn, Fe, Co, or Ni concentration	2.35(58) M^−1cm^−1	532	1.42(35) × 10^4 M^−1cm^−1	0.164(7)	566	13.58(1.93) M^−1cm^−1	2.57(35) × 10^4 M^−1cm^−1	0.529(22)	532	552	–	–	–	affinity for zinc weaker than that of ZincBY-1 ([2]; relative to ZincBY-1): five-fold weaker
COc1ccc2n1[B-](F)(F)[N+]1=C(N(CCN(Cc3ccccn3)Cc3ccccn3)Cc3ccccn3)C=CC1=C2c1c(C)cc(C)cc1C [ZincBY-1, reference compound]	–	–	3.72 ± 0.87	–	–	–	–	5.21(72) M^−1cm^−1	529	2.42(33) × 10^4 M^−1cm^−1	0.215(5)	559	26.97(2.30) M^−1cm^−1	4.14(33) × 10^4 M^−1cm^−1	0.651(18) and 0.651(2)	532	543	neither the holo or apo forms of ZincBY-1 and ZincBY-4 show significant changes in fluorescence	responds preferentially to Zn(II) relative to other biologically relevant metal ions	5.2	higher brightness on remeasurement compared to the originally reported values ([4]; both apo and holo states): 10 fold; turn-on ratio / increase in brightness in response to zinc [4]: ca. 5 fold; absorption wavelength [4, 5]: 533 nm; emission wavelength [4, 5]: 543 nm
